Assay [1] deals with BACE 1 (Beta Secretase enzyme) (Homo sapiens, UniProt P56817). Description: In vitro enzymatic BACE FRET assay. The assay is classed as biochemical. Summed up:
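BACE activity read by FRET: peptide substrate (50 nM) carrying fluorophore and quencher across the cleavage site, incubated one hour in 0.05 M acetate pH 4.2, 10% DMSO final, 100 uM genapol. Tris addition raises pH to neutrality to stop the reaction before fluorescence is read.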

In assay [2] the test system is Aβ40 in conditioned medium of cells stably expressing Amyloid Precursor Protein (APP). Briefly: In vitro BACE cell-based assay (HEK cell assay), Aβ40 sandwich ELISA. The following applies: Homo sapiens. Summed up:
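Cells stably expressing APP received 10-point compound dilutions (top 100 μM or 10 μM; 0.1% DMSO) for 24 h. Secreted Aβ40 was quantified by sandwich ELISA (pAb40 capture, biotinylated 6E10 detection, europium time-resolved fluorescence). IC50 was derived from percent inhibition versus concentration.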

The mark [3] stands for this setting: IC50 range symbols, Table 1, read-out: BACE 1 FRET assay.
The mark [4] stands for this setting: HEK293, 24 h, IC50 range symbols, Table 1, Aβ40, 24 h incubation, read-out: HEK cell assay.

Like-named read-outs stand apart in the source and are kept apart here.

BACE 1 (Beta Secretase enzyme), sequence (P56817 46-501, species assumed): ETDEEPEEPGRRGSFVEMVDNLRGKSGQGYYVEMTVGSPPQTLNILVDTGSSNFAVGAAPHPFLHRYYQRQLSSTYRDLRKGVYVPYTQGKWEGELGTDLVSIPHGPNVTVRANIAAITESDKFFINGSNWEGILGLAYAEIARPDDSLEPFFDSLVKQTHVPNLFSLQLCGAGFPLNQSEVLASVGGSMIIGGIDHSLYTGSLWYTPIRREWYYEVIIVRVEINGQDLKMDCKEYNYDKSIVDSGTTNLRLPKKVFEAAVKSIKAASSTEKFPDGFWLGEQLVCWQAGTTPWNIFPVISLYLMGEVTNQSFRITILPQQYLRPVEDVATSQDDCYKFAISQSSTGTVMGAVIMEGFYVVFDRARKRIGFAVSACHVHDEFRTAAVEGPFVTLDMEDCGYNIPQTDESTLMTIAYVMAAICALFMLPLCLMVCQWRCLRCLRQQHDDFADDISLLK

On to `CC(Cc1cc2cc([C@H]3C[C@H]3C)ccc2nc1N)C(=O)NCCC(C)(C)C` (stereo partly drawn) [Example 121, 3-(2-amino-6-((1S,2R)-2-methylcyclopropyl)quinolin-3-yl)-N-(3,3-dimethylbutyl)-2-methylpropanamide], for which the IC50 in assay [1] (setting [3]) was 500 to 1000 nM; in assay [2] (setting [4]), over 5000 nM.

As to `Cc1ccccc1-c1ccc2nc(N)c(CCC(=O)NCC3(C)COC3)cc2c1` [Example 58, 3-(2-amino-6-o-tolylquinolin-3-yl)-N-((3-methyloxetan-3-yl)methyl)propanamide], the figures for the IC50 in assay [1] (setting [3]) and in assay [2] (setting [4]) were 1000 to 5000 nM and over 5000 nM, respectively.

On to `Cc1ccccc1-c1ccc2nc(N)c(CC(C)C(=O)NC3CCCN(C)C3)cc2c1` (stereo not drawn) [Example 64, 3-(2-amino-6-o-tolylquinolin-3-yl)-2-methyl-N-(1-methylpiperidin-3-yl)propanamide], for which the IC50 in assay [1] (setting [3]) and in assay [2] (setting [4]) was under 500 nM each time.

For the compound `Cc1ccccc1-c1ccc2nc(N)c(CCC(=O)NCc3ccn(C)n3)cc2c1` [Example 54, 3-(2-amino-6-o-tolylquinolin-3-yl)-N-((1-methyl-1H-pyrazol-3-yl)methyl)propanamide], the IC50 in assay [1] (setting [3]) is 1000 to 5000 nM; in assay [2] (setting [4]), over 5000 nM.

For the compound `COc1ccccc1C(C)NC(=O)C(C)Cc1cc2cc(-c3ccccc3C)ccc2nc1N` (stereo not drawn) [Example 104, 3-(2-amino-6-o-tolylquinolin-3-yl)-N-(1-(2-methoxyphenyl)ethyl)-2-methylpropanamide], the IC50 in assay [1] (setting [3]) was under 500 nM; in assay [2] (setting [4]), 1000 to 5000 nM.

With `CCC1CCN1C(=O)C(C)Cc1cc2cc(-c3ncccc3C)ccc2nc1N` (stereo not drawn) [Example 118, 3-(2-amino-6-(3-methylpyridin-2-yl)quinolin-3-yl)-1-(2-ethylazetidin-1-yl)-2-methylpropan-1-one], the IC50 in assay [1] (setting [3]) and in assay [2] (setting [4]) was over 5000 nM throughout.

`CNC(=O)[C@H](C)Cc1cc2cc(-c3c(C)cccc3C(=O)N3CCCC3)ccc2nc1N` [Example 9, (R)-3-(2-amino-6-(2-methyl-6-(pyrrolidine-1-carbonyl)phenyl)quinolin-3-yl)-N,2-dimethylpropanamide]: the IC50 in assay [1] (setting [3]) is under 500 nM; in assay [1] (bound stated, read-out: IC50 value in the FRET BACE enzyme assay), under 50 nM; in assay [2] (setting [4]), under 500 nM; in assay [2] (HEK293, bound stated in text, read-out: IC50 value in the BACE cell-based in-vitro assay), under 100 nM.

For the compound `Cc1cccnc1-c1ccc2nc(N)c(CC(C)C(=O)NC[C@H]3CCCOC3)cc2c1` (stereo partly drawn) [Example 86, 3-(2-amino-6-(3-methylpyridin-2-yl)quinolin-3-yl)-2-methyl-N-(((R)-tetrahydro-2H-pyran-3-yl)methyl)propanamide], the IC50 in assay [1] (setting [3]) and in assay [2] (setting [4]) was under 500 nM in each case.
